Experimental data from US20020127282A1, “Multivalent silver pharmaceuticals” (priority 1991, published 2002).
Read-outs that look alike come from different tables or passages of the source.

Tests used:
[1] = tested on: Streptococcus ogalactiae 27956
Protocol: (§4) Once it could be determined that the devices inhibited a particular microorganism, the minimal concentration required of Ag4O4 was determined to inhibit the microorganism in nutrient broth. Strains of gram positive bacteria were chosen for the evaluation. […] Accordingly, three staph strains were selected as follows for evaluation: Staphylococcus aureus 9027 and 27543, and Staphylococcus epidermidis 12228. The inoculum nutrient broth was prepared according to AOAC specifications so as to contain 0.6-1 million organisms per drop of inoculum, each drop being equal to 0.05 ml. The broth itself was trypticase soy broth BBL 11766 prepared according to label instructions. Accordingly, the broth was prestandardized for the microorganisms in question in order to assure that the number of organisms remained constant within the margins of statistical allowance during the test period.

[2] = tested on: Enterobacter cloacac 13047; conditions: concentration not given
[3] = tested on: Streptococcus pyogenes 7958
Protocol: (§1) Both the prepared and commercial materials were submitted for bactericidal evaluation following “good laboratory practice” regulations as set forth in Federal regulations (FIFRA and ffdca/40 CFR 150, May 2, 1984). The silver materials were tested as to whether they could kill pathogenic microorganisms with the intent of utilizing them in pharmaceutical applications. […] Strains of gram positive bacteria were chosen for the evaluation. One family of pathogens that are known for their deleterious effects on humans are popularly called “staph” infections. These infections are commonly contracted in hospitals having lax infectious screening procedures. Accordingly, three staph strains were selected as follows for evaluation: Staphylococcus aureus 9027 and 27543, and Staphylococcus epidermidis 12228. The inoculum nutrient broth was prepared according to AOAC specifications so as to contain 0.6-1 million organisms per drop of inoculum, each drop being equal to 0.05 ml. The broth itself was trypticase soy broth BBL 11766 prepared according to label instructions. Accordingly, the broth was prestandardized for the microorganisms in question in order to assure that the number of organisms remained constant within the margins of statistical allowance during the test period. […] Other gram positive bacteria pathogens were similarly evaluated.

Bacillus subtilis 6633 = tested on: Bacillus subtilis 6633
Protocol: as §1

[4] = tested on: Staphylococcus epidermidis 12228; conditions: 24 hours at 34-35° C., 10 PPM sodium persulfate
Protocol: as §1

Micrococcus luteus 9341 = tested on: Micrococcus luteus 9341
Protocol: as §1

[5] = tested on: Candida albicans strain 16464; conditions: Sabouraud dextrose broth
Protocol: as §1

[6] = tested on: Pseudomonas aeruginosa 9027; conditions: concentration not given
Protocol: (§2) More stringent testing was then performed in which the cultures were actually placed in trypticase soy nutrient broth, which allowed the pathogens being tested to replicate without being detached from its own food supply.

[7] = tested on: Streptococcus faecalis strain 10541; conditions: trypticase soy nutrient broth
Protocol: as §2

E. coli [8] = conditions: trypticase soy nutrient broth
Protocol: as §2

Staphylococcus aureus = conditions: 24 hours at 34-35° C., 10 PPM sodium persulfate
Protocol: as §4

[9] = crystal concentrate applied
Protocol: (§3) Tests were conducted to see whether said tetroxide posed any harm to the human body. Accordingly, a 3% concentrate of the compound was prepared for a series of evaluations.
The fourth evaluation dealt with primary eye irritation. This also was in conformity with 40 CFR 160.

[10] = tested on: Saccharomycetpideae variety; conditions: Sabouraud dextrose broth
Text: Silver tetroxide was further evaluated in analogous nutrient used for yeasts and molds, namely, Sabouraud dextrose broth.

E. coli [11] = conditions: 0.5 PPM; within 0.5 minutes; 10 PPM sodium persulfate; AOAC protocol
Protocol: (§5) Select compounds of said moieties were also evaluated against algae utilizing Chorella species incubated for 10 days in algae nutrient. […] It was evaluated at 0.5 and 1.0 PPM on gram positive and negative cultures in the presence of 10 PPM sodium persulfate.

Chorella species = type: cell-based; conditions: within 5 minutes; Chorella species incubated for 10 days in algae nutrient
Protocol: as §5

Candida albercans = conditions: Sabouraud dextrose broth
[12] = albino rabbits, oxide concentrate
Protocol: as §3
The third evaluation, entitled “Primary Dermal Irritation in Albino Rabbits”, conformed to 40 CFR 160. It consisted of exposing the rabbits for prolonged periods of time and observing edema, erythema, ulceration, necrosis and any other evidence of dermal reactions or tissue destruction.

[13] = rabbits, dermal application
Protocol: as §3
The second evaluation was for acute dermal toxicity in rabbits. The protocol, 40 CFR 158.135, 81-2, was to determine the LD50 for dermal application.

[14] = rats
Protocol: as §3
The first evaluation met the requirements of Code of Federal Regulations (40 CFR 160). It consisted of determining the single dose toxicity in rats or LD50.

Streptococcus faecalis = conditions: 0.5 PPM; within 0.5 minutes; 10 PPM sodium persulfate; AOAC protocol
Protocol: as §5

[Ag+].[Ag+].[Ag+].[Ag+].[O-2].[O-2].[O-2].[O-2] [Tetrasilver tetroxide]
minimal inhibiting concentration required for 100% kills [1]: 1.25 PPM
kills [2]: 100%
minimal inhibiting concentration required for 100% kills [3]: 2.50 PPM
minimal inhibiting concentration required for 100% kills (Bacillus subtilis 6633): 5.00 PPM
minimal concentration to inhibit the microorganism [4]: 0.625 PPM
minimal inhibiting concentration required for 100% kills (Micrococcus luteus 9341): 1.25 PPM
concentration completely inhibiting growth [5]: 2.5 PPM
kills [6]: 100%
concentration achieving 100% kills [7]: 5.0 PPM
concentration achieving 100% kills (E. coli [8]; E. coli strain 10231): 2.5 PPM
concentration achieving 100% kills (E. coli [8]; E. coli strain 25254): 2.5 PPM
minimal concentration to inhibit the microorganism (Staphylococcus aureus; Staphylococcus aureus 9027): 2.5 PPM
minimal concentration to inhibit the microorganism (Staphylococcus aureus; Staphylococcus aureus 27543): 5.0 PPM
FDA category for eye effects [9]: category IV
eye irritation [9]: no eye irritation
concentration at which totally killed [10]: 1.25 PPM
kill of colonies of E. coli (E. coli [11]): 100%
concentration effecting 100% kills of algae (Chorella species): about 1 PPM
concentration at which totally killed (Candida albercans): 2.5 PPM
FDA category as dermal agent [12]: category IV
dermal reactions (edema, erythema, ulceration, necrosis, tissue destruction) ([12]; prolonged exposure): none
toxicity category (acute dermal) [13]: category III
dermal LD50 ([13]; all animals survived maximum dose): greater than 2000 mg./Kg.
FDA toxicity category ([14]; single dose toxicity): category IV
LD50 ([14]; single dose, 3% concentrate, all animals survived): greater than 5000 mg./Kg.
kill of colonies of Streptococcus faecalis (Streptococcus faecalis): 100%
